Key:
barnyard grass [1] = assay: Test Example 4: herbicidal effect by soil treatment (Table 19, symbol H); assay type: in vivo, barnyard grass (Echinochloa crus-galli)
Procedure, shortened: (§1)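 Pre-emergence style soil spray: seeds under ~1.5 cm sterilized diluvial soil received a uniform coat of emulsion diluted to the predetermined herbicide amount. Greenhouse 25–30° C; readout at week three on previously defined criteria.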

lambsquarters [2] = assay: Test Example 5: herbicidal effect by foliage application, plastic box (Table 20, symbol O); assay type: in vivo, lambsquarters (Chenopodium album); settings: foliage application, three weeks after application
Procedure, shortened: (§2)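 Plants were sown into sterilized diluvial soil under about 1.5 cm cover and kept in a greenhouse at 25° C. to 30° C. Fourteen days on, foliage received an even spray of the diluted emulsion. Herbicidal or crop effect was judged three weeks afterwards.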

rice flat sedge = assay: Test Example 3: herbicidal effect by foliage application, Wagner pot (Table 18, symbol E); assay type: in vivo, rice flat sedge (Cyperus iria)
Procedure, shortened: (§3)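 Plants were sown in alluvial soil held under 0.1–0.5 cm standing water and grown 14 days in a greenhouse at 25–30 °C. An emulsifiable formulation, water-diluted to the set dose, was then sprayed onto the foliage, and effects were scored three weeks later using previously defined criteria.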

barnyard grass [3] = assay: Test Example 3: herbicidal effect by foliage application, Wagner pot (Table 18, symbol H); assay type: in vivo, barnyard grass (Echinochloa crus-galli)
Procedure, shortened: as §3

redroot pigweed [4] = assay: Test Example 5: herbicidal effect by foliage application, plastic box (Table 20, symbol N); assay type: in vivo, redroot pigweed (Amaranthus retroflexus); settings: foliage application, three weeks after application
Procedure, shortened: as §2

late watergrass = assay: Test Example 1: herbicidal activity, application before weed generation under submerged conditions (Table 16, symbol A); assay type: in vivo, late watergrass (Echinochloa oryzicola)
Procedure, shortened: (§4)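 Submerged Wagner pots (alluvial soil, 4 cm water) sown with weed seeds and planted with 2.5-leaf rice seedlings; emulsifiable concentrate diluted in water applied to water surface on sowing day. Held in greenhouse at 25-30 °C; injury scored 0-5 by herbicidal rate after three weeks.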

Japanese bulrush = assay: Test Example 1: herbicidal activity, application before weed generation under submerged conditions (Table 16, symbol B); assay type: in vivo, Japanese bulrush (Schoenoplectus juncoides)
Procedure, shortened: as §4

oval-leafed pondweed = assay: Test Example 1: herbicidal activity, application before weed generation under submerged conditions (Table 16, symbol C); assay type: in vivo, oval-leafed pondweed (Monochoria vaginalis)
Procedure, shortened: as §4

green foxtail [5] = assay: Test Example 5: herbicidal effect by foliage application, plastic box (Table 20, symbol G); assay type: in vivo, green foxtail (Setaria viridis); settings: foliage application, three weeks after application
Procedure, shortened: as §2

Chinese sprangletop = assay: Test Example 3: herbicidal effect by foliage application, Wagner pot (Table 18, symbol D); assay type: in vivo, chinese sprangletop (Leptochloa chinensis)
Procedure, shortened: as §3

lambsquarters [6] = assay: Test Example 4: herbicidal effect by soil treatment (Table 19, symbol O); assay type: in vivo, lambsquarters (Chenopodium album)
Procedure, shortened: as §1

redroot pigweed [7] = assay: Test Example 4: herbicidal effect by soil treatment (Table 19, symbol N); assay type: in vivo, redroot pigweed (Amaranthus retroflexus)
Procedure, shortened: as §1

southern crabgrass [8] = assay: Test Example 5: herbicidal effect by foliage application, plastic box (Table 20, symbol F); assay type: in vivo, southern crabgrass (Digitaria ciliaris); settings: foliage application, three weeks after application
Procedure, shortened: as §2

barnyard grass [9] = assay: Test Example 5: herbicidal effect by foliage application, plastic box (Table 20, symbol H); assay type: in vivo, barnyard grass (Echinochloa crus-galli); settings: foliage application, three weeks after application
Procedure, shortened: as §2

velvetleaf [10] = assay: Test Example 4: herbicidal effect by soil treatment (Table 19, symbol M); assay type: in vivo, velvetleaf (Abutilon theophrasti)
Procedure, shortened: as §1

southern crabgrass [11] = assay: Test Example 4: herbicidal effect by soil treatment (Table 19, symbol F); assay type: in vivo, southern crabgrass (Digitaria ciliaris)
Procedure, shortened: as §1

velvetleaf [12] = assay: Test Example 5: herbicidal effect by foliage application, plastic box (Table 20, symbol M); assay type: in vivo, velvetleaf (Abutilon theophrasti); settings: foliage application, three weeks after application
Procedure, shortened: as §2

green foxtail [13] = assay: Test Example 4: herbicidal effect by soil treatment (Table 19, symbol G); assay type: in vivo, green foxtail (Setaria viridis)
Procedure, shortened: as §1

[14] = amount of applied herbicide 320 g/ha
[15] = amount of applied herbicide 403 g/ha

Cc1nn(C)c(=O)c(-c2c(-c3ccc(OCCS(C)(=O)=O)cc3)sc3ccc(F)cc23)c1O [2-444]
herbicidal effect, H: barnyard grass (barnyard grass [1]; [14]): 4 (Herbicidal rate of 70% or more and less than 90%) | O: lambsquarters, herbicidal effect grade (lambsquarters [2]; 320 g/ha): 5 (Herbicidal rate of 90% or more (almost completely withered)) | herbicidal effect on E: rice flat sedge (rice flat sedge; [14]): 5 (Herbicidal rate of 90% or more (almost completely withered)) | herbicidal effect on H: barnyard grass (barnyard grass [3]; [14]): 5 (Herbicidal rate of 90% or more (almost completely withered)) | N: redroot pigweed, herbicidal effect grade (redroot pigweed [4]; 320 g/ha): 5 (Herbicidal rate of 90% or more (almost completely withered)) | Herbicidal effect, A: late watergrass (late watergrass; [14]): 3 (Herbicidal rate of 40% or more and less than 70%) | Herbicidal effect, B: Japanese bulrush (Japanese bulrush; [14]): 0 (Herbicidal rate of 5% or less (almost no effect)) | Herbicidal effect, C: oval-leafed pondweed (oval-leafed pondweed; [14]): 0 (Herbicidal rate of 5% or less (almost no effect)) | G: green foxtail, herbicidal effect grade (green foxtail [5]; 320 g/ha): 5 (Herbicidal rate of 90% or more (almost completely withered)) | herbicidal effect on D: Chinese sprangletop (Chinese sprangletop; [14]): 4 (Herbicidal rate of 70% or more and less than 90%) | herbicidal effect, O: lambsquarters (lambsquarters [6]; [14]): 5 (Herbicidal rate of 90% or more (almost completely withered)) | herbicidal effect, N: redroot pigweed (redroot pigweed [7]; [14]): 5 (Herbicidal rate of 90% or more (almost completely withered)) | F: southern crabgrass, herbicidal effect grade (southern crabgrass [8]; 320 g/ha): 5 (Herbicidal rate of 90% or more (almost completely withered)) | H: barnyard grass, herbicidal effect grade (barnyard grass [9]; 320 g/ha): 5 (Herbicidal rate of 90% or more (almost completely withered)) | herbicidal effect, M: velvetleaf (velvetleaf [10]; [14]): 3 (Herbicidal rate of 40% or more and less than 70%) | herbicidal effect, F: southern crabgrass (southern crabgrass [11]; [14]): 5 (Herbicidal rate of 90% or more (almost completely withered)) | M: velvetleaf, herbicidal effect grade (velvetleaf [12]; 320 g/ha): 5 (Herbicidal rate of 90% or more (almost completely withered)) | herbicidal effect, G: green foxtail (green foxtail [13]; [14]): 5 (Herbicidal rate of 90% or more (almost completely withered))

CON=C(C)CSc1ccc(-c2sc3ccc(F)cc3c2-c2c(O)c(C)nn(C)c2=O)cc1 [2-451]
herbicidal effect, H: barnyard grass (barnyard grass [1]; [14]): 0 (Herbicidal rate of 5% or less (almost no effect)) | O: lambsquarters, herbicidal effect grade (lambsquarters [2]; 320 g/ha): 5 (Herbicidal rate of 90% or more (almost completely withered)) | herbicidal effect on E: rice flat sedge (rice flat sedge; [14]): 5 (Herbicidal rate of 90% or more (almost completely withered)) | herbicidal effect on H: barnyard grass (barnyard grass [3]; [14]): 5 (Herbicidal rate of 90% or more (almost completely withered)) | N: redroot pigweed, herbicidal effect grade (redroot pigweed [4]; 320 g/ha): 5 (Herbicidal rate of 90% or more (almost completely withered)) | Herbicidal effect, A: late watergrass (late watergrass; [14]): 2 (Herbicidal rate of 20% or more and less than 40%) | Herbicidal effect, B: Japanese bulrush (Japanese bulrush; [14]): 0 (Herbicidal rate of 5% or less (almost no effect)) | Herbicidal effect, C: oval-leafed pondweed (oval-leafed pondweed; [14]): 0 (Herbicidal rate of 5% or less (almost no effect)) | G: green foxtail, herbicidal effect grade (green foxtail [5]; 320 g/ha): 5 (Herbicidal rate of 90% or more (almost completely withered)) | herbicidal effect on D: Chinese sprangletop (Chinese sprangletop; [14]): 3 (Herbicidal rate of 40% or more and less than 70%) | herbicidal effect, O: lambsquarters (lambsquarters [6]; [14]): 4 (Herbicidal rate of 70% or more and less than 90%) | herbicidal effect, N: redroot pigweed (redroot pigweed [7]; [14]): 5 (Herbicidal rate of 90% or more (almost completely withered)) | F: southern crabgrass, herbicidal effect grade (southern crabgrass [8]; 320 g/ha): 4 (Herbicidal rate of 70% or more and less than 90%) | H: barnyard grass, herbicidal effect grade (barnyard grass [9]; 320 g/ha): 5 (Herbicidal rate of 90% or more (almost completely withered)) | herbicidal effect, M: velvetleaf (velvetleaf [10]; [14]): 3 (Herbicidal rate of 40% or more and less than 70%) | herbicidal effect, F: southern crabgrass (southern crabgrass [11]; [14]): 0 (Herbicidal rate of 5% or less (almost no effect)) | M: velvetleaf, herbicidal effect grade (velvetleaf [12]; 320 g/ha): 5 (Herbicidal rate of 90% or more (almost completely withered)) | herbicidal effect, G: green foxtail (green foxtail [13]; [14]): 0 (Herbicidal rate of 5% or less (almost no effect))

CC[S+]([O-])c1cccc(-c2sc3ccc(F)cc3c2-c2c(O)c(C)nn(C)c2=O)c1 (stereo not drawn) [2-460]
herbicidal effect, H: barnyard grass (barnyard grass [1]; [15]): 0 (Herbicidal rate of 5% or less (almost no effect)) | O: lambsquarters, herbicidal effect grade (lambsquarters [2]; 403 g/ha): 3 (Herbicidal rate of 40% or more and less than 70%) | herbicidal effect on E: rice flat sedge (rice flat sedge; [15]): 0 (Herbicidal rate of 5% or less (almost no effect)) | herbicidal effect on H: barnyard grass (barnyard grass [3]; [15]): 4 (Herbicidal rate of 70% or more and less than 90%) | N: redroot pigweed, herbicidal effect grade (redroot pigweed [4]; 403 g/ha): 3 (Herbicidal rate of 40% or more and less than 70%) | Herbicidal effect, A: late watergrass (late watergrass; [15]): 3 (Herbicidal rate of 40% or more and less than 70%) | Herbicidal effect, B: Japanese bulrush (Japanese bulrush; [15]): 0 (Herbicidal rate of 5% or less (almost no effect)) | Herbicidal effect, C: oval-leafed pondweed (oval-leafed pondweed; [15]): 0 (Herbicidal rate of 5% or less (almost no effect)) | G: green foxtail, herbicidal effect grade (green foxtail [5]; 403 g/ha): 2 (Herbicidal rate of 20% or more and less than 40%) | herbicidal effect on D: Chinese sprangletop (Chinese sprangletop; [15]): 0 (Herbicidal rate of 5% or less (almost no effect)) | herbicidal effect, O: lambsquarters (lambsquarters [6]; [15]): 3 (Herbicidal rate of 40% or more and less than 70%) | herbicidal effect, N: redroot pigweed (redroot pigweed [7]; [15]): 3 (Herbicidal rate of 40% or more and less than 70%) | F: southern crabgrass, herbicidal effect grade (southern crabgrass [8]; 403 g/ha): 0 (Herbicidal rate of 5% or less (almost no effect)) | H: barnyard grass, herbicidal effect grade (barnyard grass [9]; 403 g/ha): 3 (Herbicidal rate of 40% or more and less than 70%) | herbicidal effect, M: velvetleaf (velvetleaf [10]; [15]): 0 (Herbicidal rate of 5% or less (almost no effect)) | herbicidal effect, F: southern crabgrass (southern crabgrass [11]; [15]): 0 (Herbicidal rate of 5% or less (almost no effect)) | M: velvetleaf, herbicidal effect grade (velvetleaf [12]; 403 g/ha): 3 (Herbicidal rate of 40% or more and less than 70%) | herbicidal effect, G: green foxtail (green foxtail [13]; [15]): 0 (Herbicidal rate of 5% or less (almost no effect))

Cc1nn(C)c(=O)c(-c2c(-c3ccoc3)sc3ccc(F)cc23)c1O [2-461]
herbicidal effect, H: barnyard grass (barnyard grass [1]; [14]): 0 (Herbicidal rate of 5% or less (almost no effect)) | O: lambsquarters, herbicidal effect grade (lambsquarters [2]; 320 g/ha): 3 (Herbicidal rate of 40% or more and less than 70%) | herbicidal effect on E: rice flat sedge (rice flat sedge; [14]): 4 (Herbicidal rate of 70% or more and less than 90%) | herbicidal effect on H: barnyard grass (barnyard grass [3]; [14]): 4 (Herbicidal rate of 70% or more and less than 90%) | N: redroot pigweed, herbicidal effect grade (redroot pigweed [4]; 320 g/ha): 4 (Herbicidal rate of 70% or more and less than 90%) | Herbicidal effect, A: late watergrass (late watergrass; [14]): 3 (Herbicidal rate of 40% or more and less than 70%) | Herbicidal effect, B: Japanese bulrush (Japanese bulrush; [14]): 0 (Herbicidal rate of 5% or less (almost no effect)) | Herbicidal effect, C: oval-leafed pondweed (oval-leafed pondweed; [14]): 0 (Herbicidal rate of 5% or less (almost no effect)) | G: green foxtail, herbicidal effect grade (green foxtail [5]; 320 g/ha): 3 (Herbicidal rate of 40% or more and less than 70%) | herbicidal effect on D: Chinese sprangletop (Chinese sprangletop; [14]): 0 (Herbicidal rate of 5% or less (almost no effect)) | herbicidal effect, O: lambsquarters (lambsquarters [6]; [14]): 1 (Herbicidal rate of 5% or more and less than 20%) | herbicidal effect, N: redroot pigweed (redroot pigweed [7]; [14]): 2 (Herbicidal rate of 20% or more and less than 40%) | F: southern crabgrass, herbicidal effect grade (southern crabgrass [8]; 320 g/ha): 2 (Herbicidal rate of 20% or more and less than 40%) | H: barnyard grass, herbicidal effect grade (barnyard grass [9]; 320 g/ha): 3 (Herbicidal rate of 40% or more and less than 70%) | herbicidal effect, M: velvetleaf (velvetleaf [10]; [14]): 0 (Herbicidal rate of 5% or less (almost no effect)) | herbicidal effect, F: southern crabgrass (southern crabgrass [11]; [14]): 0 (Herbicidal rate of 5% or less (almost no effect)) | M: velvetleaf, herbicidal effect grade (velvetleaf [12]; 320 g/ha): 4 (Herbicidal rate of 70% or more and less than 90%) | herbicidal effect, G: green foxtail (green foxtail [13]; [14]): 0 (Herbicidal rate of 5% or less (almost no effect))

Reference: patent publication US20230085307A1, “PYRIDAZINONE COMPOUND AND HERBICIDE” (NISSAN CHEMICAL CORPORATION, priority 2019, published 2023)
